Results taken from patent US9994901B2, “Pro-inflammatory mediators in diagnosis and treatment of chronic obstructive pulmonary disease” (The Regents of the University of Colorado, priority 2012, dated 2018).

What was measured:
[1] = test system: human PB monocytes; assay: Human PB monocytes cultured on fibronectin 48 hrs, conditioned media ELISA (FIG. 3); assay type: cell-based; conditions: human PB monocytes (n=6) on fibronectin 48 hrs, PTA2 added; ELISA of conditioned media
Method: FIG. 3. […] Fibronectin (FN) induces pro-inflammatory mediator in human PB monocytes. Monocytes (n=6) were cultured on plastic (ctl) or fibronectin (FN) for 48 hrs. Pinane thromboxane A2 (PTA2), a thromboxane receptor antagonist, was added to some FN cultures. Conditioned media was analyzed for indicated mediators by ELISA. *P<0.05 Students two tailed t-test compared to plastic.
In particular, murine macrophages promote inflammation via a signaling pathway that depends on thromboxane receptor signaling and that is repressed by ARHGEF1. Monocytes from a healthy individual similarly promote inflammation, as indicated by MMP-9, TNFα and MCP-1 production, and this is inhibited by a (commercially available research grade) thromboxane receptor antagonist (FIG. 3).
To facilitate this analysis, we used an ELISA-based platform developed by Meso Scale Discovery (MSD), Gaithersburg, Md. USA (www.mesoscale.com) that allows a multiplex format for the analysis of pro-inflammatory cytokines, chemokines, and matrix metalloproteases. This platform relies on proprietary detection and patterned arrays in a 96-well format and that has an extremely large dynamic range enabling detection of these pro-inflammatory mediators from both biological samples (BAL fluid, serum, etc.) and tissue culture supernatant. An MSD plate reader (Sector Imager 2400) was used.

[2] = test system: COPD patient monocytes; assay: COPD patient peripheral blood monocytes cultured on fibronectin, IL-8 production (FIG. 15); assay type: cell-based, human
Method: FIG. 15. […] Graphically depicted are the results from treating human monocytes cultured on fibronectin with two different TP antagonist. […] Some fibronectin cultured cells were treated with the thromboxane receptor antagonist Pinane Thromboxane (PTA2). For PTA2 treatment, the concentration utilized is 7.5 μM.
Some fibronectin cultured cells were treated with the thromboxane receptor antagonist Pinane Thromboxane (PTA2). For PTA2 treatment, the concentration used was 7.5 μM.

[3] = test system: Arhgef1-/- animals; assay: Arhgef1-/- animals, inhalation of PTA2, BAL supernatant ELISA (FIG. 11); assay type: in vivo, mouse; conditions: ELISA 24 hr after a 1 hr inhalation exposure, vs vehicle
Method: FIG. 11. Panels A and B graphically depict the measurement of BAL pro-inflammatory mediators by ELISA in Arhgef1 deficient animals treated by inhalation of PTA2 or vehicle. […] Pro-inflammatory mediators were measured in BAL supernatant 24 hr after a 1 hr inhalation exposure to either vehicle (black bars on left sides, n=16) or PTA2 (grey bars on right sides, n=3).
(§1) Treatment with a thromboxane receptor antagonist decreases the expression of pro-inflammatory mediators.

[4] = test system: Arhgef1-/- mice; assay: Arhgef1-/- mice treated with TP antagonist, RT-PCR of BAL cells and lung tissue (FIGS. 9, 10); assay type: in vivo, mouse; conditions: time course, single dose
From the text: Arhgef1 is an intracellular signaling molecule which has been shown specifically to modulate signaling from Gα12/13 coupled receptors. […] We have identified that thromboxane receptor signaling is required for fibronectin induced MMP-9 expression in wild type and Arhgef1-deficient cells. Treatment of Arhgef1-deficient mice with a thromboxane receptor antagonist results in a consistent and reproducible reduction in MMP-9 expression and activity in the pulmonary compartment. […] Importantly treatment with a thromboxane receptor antagonist decreased expression of all of these mediators in the Arhgef1-deficient lungs. These findings were unexpected.
as §1

[5] = test system: human monocytes; assay: Human monocytes cultured on fibronectin, IL-6 by ELISA (FIG. 12); assay type: cell-based; conditions: FN+20 mM aspirin vs FN
From the text: Experiments summarized in the top of FIG. 12 show culture of human monocytes on fibronectin (FN) induces several pro-inflammatory mediators as measured by ELISA.

## CCCCC[C@@H](O)/C=C/[C@H]1C[C@H]2C[C@@H]([C@@H]1C/C=C\CCCC(=O)O)C2(C)C (relative stereo) [PTA2, (1S-(1alpha,2beta(Z),3alpha(1E,3S*),5alpha))-7-(3-(3-Hydroxy-1-octenyl)-6,6-dimethylbicyclo(3.1.1)hept-2-yl)-5-heptenoic acid]
[1]
  FN induced MCP-1: dependent on TP signaling
  FN induced TNF-: dependent on TP signaling
[2]; monocytes from 3 COPD patients on fibronectin, PTA2 7.5 μM
  IL-8 production: reduce IL-8 production
[3]
  production of several pro-inflammatory mediators in BAL supernatant: reduces production of several pro-inflammatory mediators

## CC1=C(C)C(=O)C(C(CCCCCC(=O)O)c2ccccc2)=C(C)C1=O (centres unmarked) [Seratrodast, 7-phenyl-7-(2,4,5-trimethyl-3,6-dioxocyclohexa-1,4-dien-1-yl)heptanoic acid]
[2]; monocytes from a COPD patient on fibronectin, Seratrodast 0.448, 2.24, 11.2 μM
  IL-8 production: reduce IL-8 production

## Cc1c(CC(C)(C)C(=O)O)n(Cc2ccc(Cl)cc2)c2ccc(F)cc12 [L655, 1-[(4-Chlorophenyl)methyl]-5-fluoro-α,α,3-trimethyl-1H-indole-2-propanoic acid]
[4]
  expression of several pro-inflammatory mediators, RT-PCR of BAL cells: decreases expression of several pro-inflammatory mediators
  expression of several pro-inflammatory mediators, RT-PCR of lung tissue: decreases expression of several pro-inflammatory mediators

## CC(=O)Oc1ccccc1C(=O)O [aspirin]
[5]
  FN induced IL-6 production: reduced
